Results taken from patent US9499823B2, “Constructs expressing chimeric receptors and use thereof for the controlled activation of defence response to pathogens in plants” (priority 2009, dated 2016).
“Also recorded” adds a separate entry of the source.

B1: EFR: Arabidopsis LRR receptor kinase Elongation Factor Tu Receptor (AT5G20480); GFP-fused control (protein)
chain: RFSNETDMQALLEFKSQVSENNKREVLASWNHSSPFCNWIGVTCGRRRERVISLNLGGFKLTGVISPSIGNLSFLRLLNLADNSFGSTIPQKVGRLFRLQYLNMSYNLLEGRIPSSLSNCSRLSTVDLSSNHLGHGVPSELGSLSKLAILDLSKNNLTGNFPASLGNLTSLQKLDFAYNQMRGEIPDEVARLTQMVFFQIALNSFSGGFPPALYNISSLESLSLADNSFSGNLRADFGYLLPNLRRLLLGTNQFTGAIPKTLANISSLERFDISSNYLSGSIPLSFGKLRNLWWLGIRNNSLGNNSSSGLEFIGAVANCTQLEYLDVGYNRLGGELPASIANLSTTLTSLFLGQNLISGTIPHDIGNLVSLQELSLETNMLSGELPVSFGKLLNLQVVDLYSNAISGEIPSYFGNMTRLQKLHLNSNSFHGRIPQSLGRCRYLLDLWMDTNRLNGTIPQEILQIPSLAYIDLSNNFLTGHFPEEVGKLELLVGLGASYNKLSGKMPQAIGGCLSMEFLFMQGNSFDGAIPDISRLVSLKNVDFSNNNLSGRIPRYLASLPSLRNLNLSMNKFEGRVPTTGVFRNATAVSVFGNTNICGGVREMQLKPCIVQASPRKRKPLSVRKKVVSGICIGIASLLLIIIVASLCWFMKRKKKNNASDGNPSDSTTLGMFHEKVSYEELHSATSRFSSTNLIGSGNFGNVFKGLLGPENKLVAVKVLNLLKHGATKSFMAECETFKGIRHRNLVKLITVCSSLDSEGNDFRALVYEFMPKGSLDMWLQLEDLERVNDHSRSLTPAEKLNIAIDVASALEYLHVHCHDPVAHCDIKPSNILLDDDLTAHVSDFGLAQLLYKYDRESFLNQFSSAGVRGTIGYAAPEYGMGGQPSIQGDVYSFGILLLEMFSGKKPTDESFAGDYNLHSYTKSILSGCTSSGGSNAIDEGLRLVLQVGIKCSEEYPRDRMRTDEAVRELISIRSKFFSSKTTITESPRDAPQSSPQEWMLNTDMHTM
B2: WEG: chimeric receptor: WAK1 ectodomain fused to the TM-iJM-kinase portion of EFR, GFP-fused (protein)
chain: QHQPGENCQNKCGNITIEYPFGISSGCYYPGNESFSITCKEDRPHVLSDIEVANFNHSGQLQVLLNRSSTCYDEQGKKTEEDSSFTLENLSLSANNKLTAVGCNALSLLDTFGMQNYSTACLSLCDSPPEADGECNGRGCCRVDVSAPLDSYTFETTSGRIKHMTSFHDFSPCTYAFLVEDDKFNFSSTEDLLNLRNVMRFPVLLDWSVGNQTCEQVGSTSICGGNSTCLDSTPRNGYICRCNEGFDGNPYLSAGCQDVNECTTSSTIHRHNCSDPKTCRNKVGGFYCKCQSGYRLDTTTMSCKRKEVVSGICIGIASLLLIIIVASLCWFMKRKKKNNASDGNPSDSTTLGMFHEKVSYEELHSATSRFSSTNLIGSGNFGNVFKGLLGPENKLVAVKVLNLLKHGATKSFMAECETFKGIRHRNLVKLITVCSSLDSEGNDFRALVYEFMPKGSLDMWLQLEDLERVNDHSRSLTPAEKLNIAIDVASALEYLHVHCHDPVAHCDIKPSNILLDDDLTAHVSDFGLAQLLYKYDRESFLNQFSSAGVRGTIGYAAPEYGMGGQPSIQGDVYSFGILLLEMFSGKKPTDESFAGDYNLHSYTKSILSGCTSSGGSNAIDEGLRLVLQVGIKCSEEYPRDRMRTDEAVRELISIRSKFFSSKTTITESPRDAPQSSPQEWMLNTDMHTM
modifications: left off: large carriers

How the values were obtained:
[1] = system: agroinfiltrated Arabidopsis thaliana Col-0 leaves; test: Receptor internalization: decrease of GFP fluorescence by confocal microscopy in agroinfiltrated Arabidopsis Col-0 leaves; type: cell-based; conditions: for decrease of plasma membrane-associated fluorescence signal: explants at 2 dpi; for fluorescence variation upon treatment with elfl8: 10 μM elfl8, 30 min, EFR up to 1 mM elicitor (data not shown); for fluorescence variation upon treatment with OGs: up to 30 min, no EDTA; for decrease of fluorescence from the cell membrane: OGs 100 μg/ml 30 min pre-stimulation, then 5 mM EDTA
Method: PCR templates are shown in bold. Primers listed in Table 1 are shown in capital letters. Stable transgenic lines were generated using the standard A. tumefaciens-mediated gene transfer procedure of inflorescence infiltration (Bent et al., 2006). Independent transformed plant pools were kept separate for the selection of independent transgenic lines based on their phosphinotrycin resistance and leaves GFP fluorescence. Tobacco and Arabidopsis transient transgenic lines were prepared by infiltrating with Agrobacterium tumefaciens carrying the individual constructs, as described by Reca (2008).
The GFP-dependent fluorescence was monitored from 2 to 4 days post infection in cells of the lower epidermis. Pieces of leaf were randomly cut from the infected area and mounted in water or supplemented with elicitors for microscopic observations. Flg22 and elfl8 were used at 10 μM while oligosaccharides were used at 100 μg/mL. Materials were analyzed using a Leica DM IRE epifluorescence microscope equipped with a digital cooled camera (DFC350FX R2; Leica). GFP fluorescence was excited with a 488-nm laser line, and emitted fluorescence was collected at 543-nm. The Leica Confocal Software and Adobe Photoshop 5.0 were used for post-acquisition image processing. All samples were imaged with the 40× or 100× oil objectives. Pictures were taken in Kahlman frame giving an average of 16 scans for the dynamics of internalization and 4 scans for the cellular localizations. […]
The dynamics of fluorescence localization upon treatment with elicitors was then studied. Whereas endocytosis of surface receptors upon ligand binding often occurs in animals (Warren and Landgraf 2006), this mechanism in plants has emerged only recently (Geldner & Robatzek 2008) and, so far, FLS2 is the only receptor involved in plant immunity shown to undergo endocytosis upon the specific stimulation with flg22 (Robatzek et al., 2006). The authors tested the effect of flg22 and elf 18, i.e. the peptides specifically recognized by FLS2 and EFR respectively, and oligogalacturonides with a degree of polymerization between 10 and 16 (OGs), which act as general elicitors of defense responses in several plants. Explants from agroinfiltrated Arabidopsis leaves at 2 dpi were treated with elicitors and then subjected to confocal microscopy analysis. […] Instead, when eJMC-expressing explants were stimulated with flg22, the fluorescent signal decreased by 25% and 40% after 20 min and 30 min, respectively (FIG. 3B).
The first chimeric receptor, indicated as WEG, comprised the WAK1 ectodomain fused to the TM-iJM-kinase portion of EFR and was designed to test the ability of the WAK1 ectodomain to perceive OGs and transmit the signal inside the cell. […] Both WEG and EWAK as well as WAK1 were fused to GFP and used in agroinfiltration experiments (FIG. 5A). […] Western-blot analysis using GFP-specific antibodies on proteins from IWF and microsomal fractions prepared from infiltrated leaves confirmed the plasma membrane localization of both fluorescent chimeras (FIG. 5D). The effect of OGs on the internalization of WEG was followed in agroinfiltrated Arabidopsis Col-0 leaves. […] This might be due to the inability of WEG to uncouple its ectodomain from pectins, since it is known that WAK1 strongly binds to pectin and only denaturing treatments allow its separation from cell wall (He et al., 1996). On the other hand, affinity studies have shown that WAK1 interact with cell wall pectins that are in a Ca^2+-induced conformation (i.e. the structures called “egg boxes”) and that the interaction is disrupted by adding a chelating agent such as EDTA (Decreux et al., 2005; Cabrera et al., 2008). The authors therefore tested whether OG-induced internalization of WEG occurred in the presence of 5 mM EDTA. WEG-expressing agroinfiltrated leaves were syringe-infiltrated with OGs and after 30 min the tissues were mounted in the presence of EDTA for confocal microscopy analysis. […]

[2] = system: agroinfiltrated leaves of N. tabacum ecotype SR1; test: Receptor internalization in agroinfiltrated tobacco leaves; type: cell-based, Nicotiana tabacum
Method: E) Relative variation of fluorescence in agroinfiltrated tobacco leaves expressing EFR, FLS2, eJMC and TMC and treated with 10 μM elfl8 or 10 μM flg22 for 30 min.
(§1) The GFP-dependent fluorescence was monitored from 2 to 4 days post infection in cells of the lower epidermis. Pieces of leaf were randomly cut from the infected area and mounted in water or supplemented with elicitors for microscopic observations. Flg22 and elfl8 were used at 10 μM while oligosaccharides were used at 100 μg/mL. Materials were analyzed using a Leica DM IRE epifluorescence microscope equipped with a digital cooled camera (DFC350FX R2; Leica). GFP fluorescence was excited with a 488-nm laser line, and emitted fluorescence was collected at 543-nm. The Leica Confocal Software and Adobe Photoshop 5.0 were used for post-acquisition image processing. All samples were imaged with the 40× or 100× oil objectives. Pictures were taken in Kahlman frame giving an average of 16 scans for the dynamics of internalization and 4 scans for the cellular localizations.
The behaviour of TMC and eJMC upon treatment with flg22 and elfl8 was also analysed in agroinfiltrated leaves of N. tabacum ecotype SR1 and compared to that of EFR and FLS2. […] Instead, in the eJMC expressing plants fluorescence decreased within 10-30 min after stimulation with flg22, at an extent similar to that observed in Arabidopsis, i.e. by 25% and 35% after 20 min and 30 min, respectively (FIG. 3E).

[3] = system: agroinfiltrated leaves of the Arabidopsis bak1-4 mutant; test: Receptor internalization in agroinfiltrated leaves of the Arabidopsis bak1-4 mutant; type: cell-based, Arabidopsis thaliana; conditions: 10 μM flg22, 30 min
Method: D) Relative variation of fluorescence in agroinfiltrated leaves of the Arabidopsis bak1-4 mutant expressing the indicated receptors and treated for 30 min with 10 μM flg22. Each value was normalised against fluorescence measured after 10 min of stimulation.
as §1
The authors also tested whether the presence of the LRR-RLK BAK1 (Nam & Li 2002), a protein required for flg22 and elfl8 signalling (Chinchilla et al., 2007), is also required for the internalization of eJMC induced by flg22.

[4] = system: oxidative burst in tobacco leaves; test: Oxidative burst, luminol-dependent photon counting in agroinfiltrated tobacco leaf slices; type: cell-based, Nicotiana tabacum; conditions: 10 μM elfl8, after 15 min
Method: D) Oxidative burst in tobacco leaves transiently expressing eJMC, EFR and EWAK. Photon counting was realized using tobacco leaves slices in a solution of luminol and peroxidase, during treatment with 10 μM elfl8. eJMC- and EFR-expressing explants were used as a negative and a positive control, respectively. Experiment was repeated at least 6 times on two independent replicated.
(C) Oxidative burst in agroinfiltrated tobacco leaves expressing EWAK. Leaves expressing eJMC and EFR were used as a negative and a positive control, respectively. The burst was measured by photon counting using leaf slices incubated in a solution containing 10 μM elfl8, luminol and peroxidase. The experiment was repeated at least 6 times with two independent replicates.
3,3′-diaminobenzidine (DAB) staining, callose deposition and gene resistance analysis were assayed as described (Galletti et al., 2008). For measuring active oxygen species released by tobacco agroinfiltrated plants after elicitor treatment, the authors used a modified luminol-dependent assay (Gomez et al., 1999). Slices, corresponding to approximately 30 mg fresh weight, were transferred to assay tubes containing 1 μM flg22 or 10 μM elfl8 in aqueous solution supplied with 40 μM luminol (SIGMA). Chemo-luminescence was measured in a liquid scintillation counter (LS-6500, Beckman) after 5 and 15 min upon addition of elicitors.

[5] = 10 μM flg22, after 20 min of stimulation
[6] = 10 μM flg22, after 30 min of stimulation

Row | Molecule | decrease of plasma membrane-associated fluorescence signal [1, 5] [%] | decrease of plasma membrane-associated fluorescence signal [1, 6] [%] | internalization induced by flg22 in the bak1-4 mutant [3] | fluorescence variation upon treatment with elfl8 [1] | fluorescence variation upon treatment with OGs ([1]; 100 μg/ml OGs) | oxidative burst upon treatment with elfl8 [4] | further results
1 | FLS2 [reference compound] | 15 | 30 | nearly abolished |  |  |  | decrease of fluorescence in the presence of EDTA upon stimulation with OGs ([1]; 100 μg/ml OGs, 5 mM EDTA): No decrease of fluorescence; internalization after stimulation with flg22 ([2]; 10 μM flg22, 30 min): Neither FLS2 nor TMC underwent internalization
2 | eJMC: chimera (Arg806FLS2-Val650EFR): LRR and eJM domains of FLS2 fused upstream of TM, iJM and kinase domains of EFR, GFP-fused | 25 | 40 | not affected | did not induce any significant fluorescence variation | did not induce any significant fluorescence variation | not | oxidative burst upon treatment with elfl8 ([4]; listed as eJM): did not show any significant response; fluorescence decrease after stimulation with flg22 ([2]; 10 μM flg22, after 20 min): 25%; fluorescence decrease after stimulation with flg22 ([2]; 10 μM flg22, after 30 min): 35%
3 | B1 |  |  |  | no significant decrease of fluorescence |  | produced an oxidative burst; also recorded: robust oxidative burst | internalization response upon stimulation with elfl8 ([2]; 10 μM elfl8, 30 min): no response
4 | B2 |  |  |  |  | No decrease of the plasma membrane-associated fluorescence |  | decrease of fluorescence in the presence of EDTA upon stimulation with flg22 ([1]; 10 μM flg22, 5 mM EDTA): No decrease of fluorescence; internalization in the presence of EDTA upon stimulation with oligomannuronides (OMs) ([1]; 100 μg/mL OMs, EDTA): did not occur; internalization in the presence of EDTA upon stimulation with 3-6 OGs ([1]; 100 μg/ml 3-6 OGs, EDTA): did not occur; decrease of fluorescence from the cell membrane ([1]; after 20 min): 15%; decrease of fluorescence from the cell membrane ([1]; after 30 min): 25%
